Measured values published in patent publication US11420947B2, “(S)-n-hydroxy-2-(2-(4-methoxyphenyl)butanamido)thiazole-5-carboxamide and pharmaceutically acceptable salts thereof” (TRANSLATIONAL DRUG DEVELOPMENT, LLC, priority 2018, dated 2022).

Tests used:
Test in all cases: CellTiter-Glo cell viability assay
Format in all cases: cell-based
[1] = test system: HCC70; settings: for IC50: Homo sapiens, HCC70, BREAST, TNBC, 72 hours
Outline: (§1)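 ATP-based luminescence read-out after 72 h compound exposure. Seeding 2.5×10^3–5×10^3 cells/well, 24 h recovery before dosing. % growth = test/vehicle ×100; IC50 from four-parameter fit.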

[2] = test system: H522; settings: for IC50: Homo sapiens, NCI-H522, H522, LUNG, NSCLC, 72 hours
Outline: as §1

[3] = test system: Hs852T; settings: for IC50: Hs852T, MELANOMA, 72 hours
Outline: as §1

[4] = test system: Nalm-6; settings: for IC50: Homo sapiens, Nalm-6, HEMATOPIETIC, ALL, 72 hours
Outline: as §1

[5] = test system: J1M-1; settings: for IC50: J1M-1, HEMATOPIETIC, MM, 72 hours
Outline: as §1

[6] = test system: A375; settings: for IC50: Homo sapiens, A-375, A375, MELANOMA, Malignant Melanoma, 72 hours
Outline: as §1

[7] = test system: MDA-MB-231; settings: for IC50: Homo sapiens, MDA-MB-231, BREAST, TNBC, 72 hours
Outline: as §1

[8] = test system: MiaPaCa; settings: for IC50: Homo sapiens, MIA PaCa-2, MiaPaCa, PANCREAS, Pancreatic, 72 hours
Outline: as §1

[9] = test system: THP-1; settings: for IC50: Homo sapiens, THP-1, HEMATOPIETIC, AML, 72 hours
Outline: as §1

[10] = test system: H1975; settings: for IC50: Homo sapiens, NCI-H1975, H1975, LUNG, NSCLC, 72 hours
Outline: as §1

[11] = test system: H358; settings: for IC50: Homo sapiens, NCI-H358, H358, LUNG, NSCLC, 72 hours
Outline: as §1

[12] = test system: YAPC; settings: for IC50: Homo sapiens, YAPC, PANCREAS, Pancreatic, 72 hours
Outline: as §1

[13] = test system: L363; settings: for IC50: Homo sapiens, L-363, L363, HEMATOPIETIC, MM, 72 hours
Outline: as §1

[14] = test system: Hec-1A; settings: for IC50: Homo sapiens, Hec-1A, ENDOMETRIAL, 72 hours
Outline: as §1

[15] = test system: CCRF-CEM; settings: for IC50: Homo sapiens, CCRF-CEM, HEMATOPIETIC, ALL, 72 hours
Outline: as §1

[16] = test system: RPMI-8226; settings: for IC50: Homo sapiens, RPMI-8226, HEMATOPIETIC, MM, 72 hours
Outline: as §1

[17] = test system: KG-1; settings: for IC50: Homo sapiens, KG-1, HEMATOPIETIC, AML, 72 hours
Outline: as §1

[18] = test system: SKUT-1; settings: for IC50: Homo sapiens, SK-UT-1, SKUT-1, ENDOMETRIAL, Uterine, 72 hours
Outline: as §1

[19] = test system: KLE; settings: for IC50: Homo sapiens, KLE, ENDOMETRIAL, 72 hours
Outline: as §1

[20] = test system: AN3CA; settings: for IC50: Homo sapiens, AN3-CA, AN3CA, ENDOMETRIAL, 72 hours
Outline: as §1

Compound `CCC(C(=O)Nc1ncc(C(=O)NO)s1)c1ccc(OC)cc1` (racemic) [#1, N-hydroxy-2-(2-(4-methoxyphenyl)butanamido)thiazole-5-carboxamide] has an IC50 [1] of 100 nM, an IC50 [2] of 178 nM and an IC50 [3] of 490 nM. For the same compound, the IC50 [4] was 26 nM, the IC50 [5] was 47 nM and the IC50 [6] was 269 nM. It also gave an IC50 [7] of 113 nM, an IC50 [8] of 51 nM and an IC50 [9] of 65 nM. The IC50 [10] was 114 nM, the IC50 [11] was 158 nM and the IC50 [12] was 437 nM. For the same compound, the IC50 [13] was 44 nM, the IC50 [14] was 56 nM and the IC50 [15] was 28 nM. For the same compound, the IC50 [16] was 31 nM, the IC50 [17] was 22 nM and the IC50 [18] was 229 nM. It also gave an IC50 [19] of 215 nM and an IC50 [20] of 66 nM.
In the case of `CC[C@H](C(=O)Nc1ncc(C(=O)NO)s1)c1ccc(OC)cc1` [#1a, (S)—N-hydroxy-2-(2-(4-methoxyphenyl)butanamido)thiazole-5-carboxamide], the IC50 [1] is reported as 52 nM, the “#1/#1a” value ([1]; ratio of IC50, HCC70) is reported as 1.92 and the “#1b/#1a” value ([1]; ratio of IC50, HCC70) is reported as 6.56. For the same compound, the IC50 [2] was 115 nM, the “#1/#1a” value ([2]; ratio of IC50, H522) was 1.55 and the “#1b/#1a” value ([2]; ratio of IC50, H522) was 8.5. The IC50 [3] was 54 nM, the “#1/#1a” value ([3]; ratio of IC50, Hs852T) was 9.07 and the “#1b/#1a” value ([3]; ratio of IC50, Hs852T) was 22.96. The IC50 [4] was 11 nM, the “#1/#1a” value ([4]; ratio of IC50, Nalm-6) was 2.36 and the “#1b/#1a” value ([4]; ratio of IC50, Nalm-6) was 8.27. The IC50 [5] was 26 nM, the “#1/#1a” value ([5]; ratio of IC50, J1M-1) was 1.81 and the “#1b/#1a” value ([5]; ratio of IC50, J1M-1) was 8.42. The IC50 [6] was 32 nM, the “#1/#1a” value ([6]; ratio of IC50, A375) was 8.41 and the “#1b/#1a” value ([6]; ratio of IC50, A375) was 20.34. For the same compound, the IC50 [7] was 62 nM, the “#1/#1a” value ([7]; ratio of IC50, MDA-MB-231) was 1.82 and the “#1b/#1a” value ([7]; ratio of IC50, MDA-MB-231) was 10.42. The IC50 [8] was 35 nM, the “#1/#1a” value ([8]; ratio of IC50, MiaPaCa) was 1.46 and the “#1b/#1a” value ([8]; ratio of IC50, MiaPaCa) was 8.26. For the same compound, the IC50 [9] was 32 nM, the “#1/#1a” value ([9]; ratio of IC50, THP-1) was 2.03 and the “#1b/#1a” value ([9]; ratio of IC50, THP-1) was 6.13. The IC50 [10] was 40 nM, the “#1/#1a” value ([10]; ratio of IC50, H1975) was 2.85 and the “#1b/#1a” value ([10]; ratio of IC50, H1975) was 9.95. The IC50 [11] was 69 nM, the “#1/#1a” value ([11]; ratio of IC50, H358) was 2.29 and the “#1b/#1a” value ([11]; ratio of IC50, H358) was 8.09. For the same compound, the IC50 [12] was 215 nM, the “#1/#1a” value ([12]; ratio of IC50, YAPC) was 2.03 and the “#1b/#1a” value ([12]; ratio of IC50, YAPC) was 9.13. The IC50 [13] was 21 nM, the “#1/#1a” value ([13]; ratio of IC50, L363) was 2.1 and the “#1b/#1a” value ([13]; ratio of IC50, L363) was 8.1. The IC50 [14] was 37 nM, the “#1/#1a” value ([14]; ratio of IC50, Hec-1A) was 1.51 and the “#1b/#1a” value ([14]; ratio of IC50, Hec-1A) was 8.35. For the same compound, the IC50 [15] was 14 nM, the “#1/#1a” value ([15]; ratio of IC50, CCRF-CEM) was 2 and the “#1b/#1a” value ([15]; ratio of IC50, CCRF-CEM) was 8.07. For the same compound, the IC50 [16] was 14 nM, the “#1/#1a” value ([16]; ratio of IC50, RPMI-8226) was 2.21 and the “#1b/#1a” value ([16]; ratio of IC50, RPMI-8226) was 9.21. For the same compound, the IC50 [17] was 12 nM, the “#1/#1a” value ([17]; ratio of IC50, KG-1) was 1.83 and the “#1b/#1a” value ([17]; ratio of IC50, KG-1) was 12.33. The IC50 [18] was 215 nM, the “#1/#1a” value ([18]; ratio of IC50, SKUT-1) was 1.07 and the “#1b/#1a” value ([18]; ratio of IC50, SKUT-1) was 5.86. For the same compound, the IC50 [19] was 106 nM, the “#1/#1a” value ([19]; ratio of IC50, KLE) was 2.03 and the “#1b/#1a” value ([19]; ratio of IC50, KLE) was 8.03. For the same compound, the IC50 [20] was 47 nM, the “#1/#1a” value ([20]; ratio of IC50, AN3CA) was 1.4 and the “#1b/#1a” value ([20]; ratio of IC50, AN3CA) was 4.87.
With `CC[C@@H](C(=O)Nc1ncc(C(=O)NO)s1)c1ccc(OC)cc1` [#1b, (R)—N-hydroxy-2-(2-(4-methoxyphenyl)butanamido)thiazole-5-carboxamide] the IC50 [1] was 341 nM, the IC50 [2] was 977 nM and the IC50 [3] was 1240 nM. For the same compound, the IC50 [4] was 91 nM, the IC50 [5] was 219 nM and the IC50 [6] was 651 nM. For the same compound, the IC50 [7] was 646 nM, the IC50 [8] was 289 nM and the IC50 [9] was 196 nM. For the same compound, the IC50 [10] was 398 nM, the IC50 [11] was 558 nM and the IC50 [12] was 1960 nM. For the same compound, the IC50 [13] was 170 nM, the IC50 [14] was 309 nM and the IC50 [15] was 113 nM. The IC50 [16] was 129 nM, the IC50 [17] was 148 nM and the IC50 [18] was 1260 nM. It also gave an IC50 [19] of 851 nM and an IC50 [20] of 229 nM.
